This test deals with T1, recombinant human androgen receptor (hAR) (Homo sapiens, UniProt P10275).
T1 construct: made in house; host or cells: baculovirus/Sf9 insect cells (crude extract)
T1 sequence (P10275 1-920): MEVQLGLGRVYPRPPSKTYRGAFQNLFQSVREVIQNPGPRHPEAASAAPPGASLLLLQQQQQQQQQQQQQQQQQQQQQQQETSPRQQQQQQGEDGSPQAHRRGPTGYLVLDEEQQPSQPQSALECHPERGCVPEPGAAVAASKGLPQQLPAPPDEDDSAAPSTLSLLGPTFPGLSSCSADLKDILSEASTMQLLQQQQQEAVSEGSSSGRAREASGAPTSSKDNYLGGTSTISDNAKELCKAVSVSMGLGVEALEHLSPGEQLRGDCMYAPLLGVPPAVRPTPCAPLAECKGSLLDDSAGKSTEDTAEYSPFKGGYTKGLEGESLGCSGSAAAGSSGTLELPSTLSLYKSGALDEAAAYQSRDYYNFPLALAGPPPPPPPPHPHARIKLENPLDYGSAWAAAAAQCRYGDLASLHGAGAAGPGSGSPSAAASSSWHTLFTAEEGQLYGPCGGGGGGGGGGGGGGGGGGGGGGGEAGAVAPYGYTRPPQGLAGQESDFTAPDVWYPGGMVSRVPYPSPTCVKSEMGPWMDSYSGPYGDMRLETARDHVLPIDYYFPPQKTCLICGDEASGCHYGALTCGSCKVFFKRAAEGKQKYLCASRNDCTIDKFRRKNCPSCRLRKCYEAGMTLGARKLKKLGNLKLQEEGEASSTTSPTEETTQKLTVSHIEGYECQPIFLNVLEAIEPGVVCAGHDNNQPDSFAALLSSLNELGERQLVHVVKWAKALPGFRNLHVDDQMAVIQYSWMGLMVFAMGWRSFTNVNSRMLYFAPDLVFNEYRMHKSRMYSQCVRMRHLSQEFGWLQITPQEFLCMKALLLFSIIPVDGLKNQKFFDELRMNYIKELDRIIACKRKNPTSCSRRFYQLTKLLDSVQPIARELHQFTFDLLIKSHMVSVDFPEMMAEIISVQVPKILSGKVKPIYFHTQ
The test can be described thus: Human androgen receptor binding analysis (3H-DHT competitive binding). The procedure:
The following is a brief description of the assay that determines the affinity of a compound for the recombinant human androgen receptor (hAR). Competitive binding analysis is performed on baculovirus/Sf9 generated hAR extracts in the presence or absence of differing concentrations of drug and a fixed concentration of ^3H-dihydrotestosterone (^3H-DHT) as tracer. This binding assay method is a modification of a protocol previously described (Chang, et. al. J. Steroid Biochem. 20(1):11-17 1984). Briefly, progressively decreasing concentrations of compounds are incubated in the presence of hAR extract (Chang et al. P.N.A.S. Vol. 89, pp. 5546-5950, 1992), hydroxylapatite and 1 nM ^3H-DHT for one hour at 4° C. Subsequently, the binding reactions are washed three times to completely remove excess unbound ^3H-DHT. hAR bound ^3H-DHT levels are determined in the presence of compounds (=competitive binding) and compared to levels bound when no competitor is present (=maximum binding). Compound binding affinity to the hAR is expressed as the concentration of compound at which one half of the maximum binding is inhibited (the IC50).
As for `CC[C@H]1CCCCN1c1cc(F)c(C#N)c(F)c1` [Example 2, 4-(2-(S)-Ethyl-piperidin-1-yl)-2,6-difluoro-benzonitrile], the IC50 was determined as 1.15 nM.

As to `CC[C@H]1CCCCN1c1ccc(C#N)c(Cl)c1` [Example 3, 2-Chloro-4-(2-(S)-ethyl-piperidin-1-yl)-benzonitrile], the IC50 worked out at 3.67 nM. Regarding `CC[C@H]1CCCCN1c1ccc(C#N)c(C#N)c1` [Example 4, 4-(2-(S)-Ethyl-piperidin-1-yl)-phthalonitrile], the IC50 worked out at 7.75 nM. As to `CCC1CCCCN1c1ccc(C#N)c(C#N)c1` (stereo not shown) [Example 5, 4-(2-Ethyl-piperidin-1-yl)-phthalonitrile], the IC50 is 5.35 nM. `CCC1CCCCN1c1ccc(C#N)c(C(F)(F)F)c1` (stereo not shown) [Example 6, 4-(2-Ethyl-piperidin-1-yl)-2-trifluoromethyl-benzonitrile]: the IC50 came to 1.83 nM. For `CC[C@@H](C)N(CC)c1ccc(C#N)c(Cl)c1` [Example 8, 4-((R)-sec-Butyl-ethyl-amino)-2-chloro-benzonitrile], the IC50 is 1.4 nM. As to `CC[C@@H](C)N(C)c1ccc(C#N)c(Cl)c1` [Example 9, 4-((R)-sec-Butyl-methyl-amino)-2-chloro-benzonitrile], the IC50 came out at 3.63 nM. As for `CCCN(c1ccc(C#N)c(Cl)c1)[C@H](C)CC` [Example 10, 4-((R)-sec-Butyl-propyl-amino)-2-chloro-benzonitrile], the IC50 amounted to 3.28 nM.

`CCCN(c1ccc(C#N)c(C#N)c1)[C@H](C)CC` [Example 11, 4-((R)-sec-Butyl-propyl-amino)-phthalonitrile]: the IC50 came out at 8 nM.

Consider `CC[C@@H](C)N(CC)c1ccc(C#N)c(C(F)(F)F)c1` [Example 12, 4-((R)-sec-Butyl-ethyl-amino)-2-trifluoromethyl-benzonitrile], for which the IC50 is 3.21 nM. For the molecule `CC[C@@H](C)N(C)c1ccc(C#N)c(C#N)c1` [Example 13, 4-((R)-sec-Butyl-methyl-amino)-phthalonitrile], the 50% inhibitory concentration (IC50) was 2.9 nM. Under `CC[C@@H](C)N(CC)c1ccc(C#N)c(C#N)c1` [Example 14] stands 3.8 nM. Regarding `CCCN(CCC)c1ccc(C#N)c(C(F)(F)F)c1` [Example 15, 4-Dipropylamino-2-trifluoromethyl-benzonitrile], the IC50 worked out at 1.68 nM. Regarding `CCN(c1ccc(C#N)c(C#N)c1)C(C)C` [Example 16, 4-(Ethyl-isopropyl-amino)-phthalonitrile], the IC50 was 3.06 nM. For `CCC(C)N(C)c1ccc(C#N)c(C(F)(F)F)c1` (stereo not shown) [Example 17, 4-(sec-Butyl-methyl-amino)-2-trifluoromethyl-benzonitrile], the IC50 came out at 3.99 nM.

`CCCN(c1ccc(C#N)c(C#N)c1)C(C)CC` (stereo not shown) [Example 18, 4-(sec-Butyl-propyl-amino)-phthalonitrile]: the IC50 was found to be 2.49 nM. Turning to `CCCN(CCC)c1ccc(C#N)c(C#N)c1` [Example 19, 4-Dipropylamino-phthalonitrile], the IC50 is 6.44 nM. Consider `CCN(CC)c1ccc(C#N)c(C(F)(F)F)c1` [Example 20, 4-Diethylamino-2-trifluoromethyl-benzonitrile], for which the IC50 amounted to 2.62 nM. For `CCC(C)N(CC)c1ccc(C#N)c(C(F)(F)F)c1` (stereo not shown) [Example 21, 4-(sec-Butyl-ethyl-amino)-2-trifluoromethyl-benzonitrile], the IC50 is 1.71 nM. As to `CCCN(CC)c1ccc(C#N)c(Cl)c1` [Example 22, 2-Chloro-4-(ethyl-propyl-amino)-benzonitrile], the IC50 was determined as 5.4 nM. `CC(C)N(C)c1ccc(C#N)c(Cl)c1` [Example 23, 2-Chloro-4-(isopropyl-methyl-amino)-benzonitrile]: the IC50 was found to be 4.21 nM. For `CC(C)[C@@H](C)N(C)c1ccc(C#N)c(Cl)c1` [Example 25, 2-Chloro-4-[(1-(R), 2-dimethyl-propyl)-methyl-amino]-benzonitrile], the IC50 was determined as 45.6 nM.

In the case of `CC[C@H](C)N(C)c1ccc(C#N)c(C(F)(F)F)c1` [Example 26], the IC50 worked out at 5.47 nM. For the molecule `CC[C@H](C)N(CC)c1ccc(C#N)c(C(F)(F)F)c1` [Example 27, 4-((S)-sec-Butyl-ethyl-amino)-2-trifluoromethyl-benzonitrile], the IC50 was 7.32 nM. To `CC1CCCN1c1ccc(C#N)c(C(F)(F)F)c1` (stereo not shown) [Example 28, 4-(2-Methyl-pyrrolidin-1-yl)-2-trifluoromethyl-benzonitrile] belongs 1.5 nM. Regarding `CCCC1CCCCN1c1ccc(C#N)c(C(F)(F)F)c1` (stereo not shown) [Example 30, 4-(2-Propyl-piperidin-1-yl)-2-trifluoromethyl-benzonitrile], the IC50 turned out to be 2.33 nM. Consider `CCC1CC(CO)CCN1c1ccc(C#N)c(C(F)(F)F)c1` (stereo not shown) [Example 31, 4-(2-Ethyl-4-hydroxymethyl-piperidin-1-yl)-2-trifluoromethyl-benzonitrile], for which the IC50 is 9.63 nM. Turning to `CCCN(c1ccc(C#N)c(C(F)(F)F)c1)[C@H](C)CC` [Example 32, 4-((R)-sec-Butyl-propyl-amino)-2-trifluoromethyl-benzonitrile], the IC50 was found to be 5.97 nM. Regarding `C=CCN(C)c1ccc(C#N)c(C(F)(F)F)c1` [Example 33, 4-(Allyl-methyl-amino)-2-trifluoromethyl-benzonitrile], the IC50 was determined as 3.82 nM. Regarding `CC1CCCCN1c1ccc(C#N)c(C(F)(F)F)c1` (stereo not shown) [Example 34, 4-(2-Methyl-piperidin-1-yl)-2-trifluoromethyl-benzonitrile], the IC50 is 24.8 nM. Regarding `CCOC[C@H]1CCCN1c1ccc(C#N)c(C(F)(F)F)c1` [Example 35, 4-(2(R)-(Ethoxy-methyl)-pyrrolidin-1-yl)-2-trifluoromethyl-benzonitrile], the IC50 turned out to be 2.07 nM.

Consider `N#Cc1ccc(N2CCCCC2CCO)cc1C(F)(F)F` (stereo not shown) [Example 36, 4-(2-(2-Hydroxyethyl)-piperidin-1-yl)-2-trifluoromethyl-benzonitrile], for which the IC50 came out at 27.7 nM. `COC[C@H]1CCCN1c1ccc(C#N)c(C(F)(F)F)c1` [Example 37, 4-(2(R)-(Methoxy-methyl)-pyrrolidin-1-yl)-2-trifluoromethyl-benzonitrile]: the IC50 came to 10.1 nM. Regarding `CCCCCN(CC)c1ccc(C#N)c(C(F)(F)F)c1` [Example 38, 4-(Ethyl-pentyl-amino)-2-trifluoromethyl-benzonitrile], the IC50 is 11.6 nM.

As to `CCCCN(CCC)c1ccc(C#N)c(C(F)(F)F)c1` [Example 39, 4-(Butyl-propyl-amino)-2-trifluoromethyl-benzonitrile], the IC50 came to 2 nM. For the molecule `CC(C)N(C)c1ccc(C#N)c(C(F)(F)F)c1` [Example 40, 4-(Isopropyl-methyl-amino)-2-trifluoromethyl-benzonitrile], the IC50 came out at 0.99 nM. Turning to `CCCCCN(CCC)c1ccc(C#N)c(C(F)(F)F)c1` [Example 41, 4-(Pentyl-propyl-amino)-2-trifluoromethyl-benzonitrile], the IC50 stood at 9.39 nM. As for `N#Cc1ccc(N2CCCCC2CO)cc1C(F)(F)F` (stereo not shown) [Example 42, 4-(2-Hydroxymethyl-piperidin-1-yl)-2-trifluoromethyl-benzonitrile], the IC50 came out at 15.3 nM. As to `CCCCN(CC)c1ccc(C#N)c(C(F)(F)F)c1` [Example 43, 4-(Butyl-ethyl-amino)-2-trifluoromethyl-benzonitrile], the IC50 amounted to 7.58 nM.

As for `CCCCN(CCCC)c1ccc(C#N)c(C(F)(F)F)c1` [Example 44, 4-(Dibutyl-amino)-2-trifluoromethyl-benzonitrile], the IC50 is 12.8 nM. For `N#Cc1ccc(N2CCC[C@@H]2CO)cc1C(F)(F)F` [Example 45, 4-(2(R)-(Hydroxy-methyl)-pyrrolidin-1-yl)-2-trifluoromethyl-benzonitrile], the IC50 was determined as 22.7 nM. As for `CCCN(c1ccc(C#N)c(Cl)c1)C(C)C` [Example 46, 2-Chloro-4-(isopropyl-propyl-amino)-benzonitrile], the IC50 is 9.79 nM. To `CCN(CC)c1ccc(C#N)c(Cl)c1` [Example 47, 2-Chloro-4-(diethyl-amino)-benzonitrile] belongs 2.98 nM.

The values are drawn from patent publication US20080045504A1, “Benzonitrile Derivatives to Treat Musculoskeletal Frailty” (PFIZER PRODUCTS INC., priority 2004, published 2008).
